Values of other authors as cited in paper PMC8445767 (Bioorganic Chemistry, 2021).
Where two headings read alike, the source gives them in different places.

How the values were obtained:
[1] = system: herpes simplex virus type 1; conditions: read-out: IC50 against herpes simplex virus type 1
[2] = system: herpes simplex virus type 1; conditions: read-out: IC50 against herpes simplex virus type 1; remark: listed apart in the source

Substance | IC50 [1] | IC50 [2]
Aspergilli peptide D [XI] | 9.5 µM | 
Simplicilliumtide J [XIV] |  | 14 µM
